In PMC2603307 (Chemistry & biology, 2008):

Molecular target: T1, E. coli GCH I (FolE, B2153) (Escherichia coli, UniProt P0A6T5)
T1 sequence (P0A6T5 2-222): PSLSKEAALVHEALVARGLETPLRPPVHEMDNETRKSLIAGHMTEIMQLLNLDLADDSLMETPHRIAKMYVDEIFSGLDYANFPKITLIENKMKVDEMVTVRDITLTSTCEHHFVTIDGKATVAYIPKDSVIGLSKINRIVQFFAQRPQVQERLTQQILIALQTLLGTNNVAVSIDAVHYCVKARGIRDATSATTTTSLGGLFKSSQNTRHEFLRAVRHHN
Experiment: LC-MS of product
Type: biochemical
Settings: 20 mM Tris-SO4 pH 8.0, 2 mM dithiothreitol, 0.1 M KCl, 100 uM GTP, 120 min, ambient temperature

Question: With `Nc1nc2c(ncn2[C@@H]2O[C@H](COP(=O)(O)OP(=O)(O)OP(=O)(O)O)[C@@H](O)[C@H]2O)c(=O)[nH]1` [GTP] as the compound, how does the LC-MS of product read?
Answer: product produced by ToyD with that produced with E. coli GCH I (FolE, B2153)
